Measurements from patent US9066990B2, “Preparation for restenosis prevention” (priority 2001, dated 2015).

Assay: Solubility in the contrast agent or physiological NaCl solution

With CC(=O)O[C@H]1C(=O)[C@@]2(C)[C@H]([C@H](OC(=O)c3ccccc3)[C@]3(O)C[C@H](OC(=O)[C@H](O)[C@@H](NC(=O)c4ccccc4)c4ccccc4)C(C)=C1C3(C)C)[C@]1(OC(C)=O)CO[C@@H]1C[C@@H]2O [paclitaxel, 4,10-β-diacetoxy-13-α-((2R,3S)-3-ben-zamido-2-hydroxy-3-phenylpropionyloxy)-2α-benzoyloxy-5-β, 20-epoxy-1,7-β-dihydroxy-11-taxene-9-one] the “appearance of preparation after mixing” value (4.2 mg paclitaxel in 0.5 ml of ethanol added at room temperature to 50 ml of 0.9% NaCl solution) was “becomes turbid immediately after mixing”, the “particles under a microscope” value (4.2 mg paclitaxel in 50 ml of 0.9% NaCl solution) was “Large aggregations of fine particles” and the “appearance of solution after mixing” value (7.6 mg paclitaxel in 0.5 mg of ethanol added at room temperature to 50 ml Ultravist-370) was “clear solution without any turbidity”. The “particles under a microscope” value (7.6 mg paclitaxel in 50 ml Ultravist-370) was “No particles can be identified” and the “stability of the solution” value (7.6 mg paclitaxel in 50 ml Ultravist-370, room temperature) was “remains stable for several days”.
